For this test, the target named is T1, STAT6 (Homo sapiens, UniProt P42226).
T1 construct: endogenous in cells; host or cells: MOLM-16, KU-812, SKNO1, MB231, L1236
T1 sequence (P42226 1-847): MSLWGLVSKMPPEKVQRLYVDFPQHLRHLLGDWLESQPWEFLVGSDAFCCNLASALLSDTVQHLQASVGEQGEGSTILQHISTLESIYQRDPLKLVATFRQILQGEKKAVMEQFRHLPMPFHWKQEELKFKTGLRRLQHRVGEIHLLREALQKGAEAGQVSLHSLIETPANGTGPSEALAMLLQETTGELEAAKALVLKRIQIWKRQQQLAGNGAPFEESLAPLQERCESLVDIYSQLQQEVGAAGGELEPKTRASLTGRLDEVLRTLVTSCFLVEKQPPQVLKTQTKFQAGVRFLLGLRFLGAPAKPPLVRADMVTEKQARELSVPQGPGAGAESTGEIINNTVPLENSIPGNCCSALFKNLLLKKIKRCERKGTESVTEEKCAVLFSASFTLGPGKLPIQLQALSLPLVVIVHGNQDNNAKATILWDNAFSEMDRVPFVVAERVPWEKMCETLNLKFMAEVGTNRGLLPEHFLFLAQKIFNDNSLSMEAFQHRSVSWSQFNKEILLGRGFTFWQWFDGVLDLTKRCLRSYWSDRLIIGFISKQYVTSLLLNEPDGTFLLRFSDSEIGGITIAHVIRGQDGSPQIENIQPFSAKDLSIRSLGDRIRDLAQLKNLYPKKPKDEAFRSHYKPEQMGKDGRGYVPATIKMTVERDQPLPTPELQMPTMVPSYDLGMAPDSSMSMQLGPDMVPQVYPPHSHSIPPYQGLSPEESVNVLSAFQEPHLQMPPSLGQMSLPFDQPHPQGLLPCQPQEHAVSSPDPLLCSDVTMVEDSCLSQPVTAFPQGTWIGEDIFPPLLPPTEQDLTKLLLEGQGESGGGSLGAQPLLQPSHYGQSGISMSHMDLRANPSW
Put plainly: Immunoblotting (Western blot) analysis of STAT6 degradation efficiency of degraders in treated cells. It is filed as cell-based. The method in brief: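 Protein levels of STAT5 and STAT6 were assessed in cells cultured at 37 °C in 10% FBS medium after compound exposure, by quantitative fluorescent Western blotting normalised to equal loading and referenced to GAPDH.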

Setting [1] is: L1236 cells, read-out: DC50 S6 L1236.
The mark [2] stands for this setting: MOLM-16 cells, class symbols, read-out: DC50 S6 MOLM-16.

Read-outs that look alike come from different tables or passages of the source.

For the molecule `Cc1ncsc1-c1ccc(CNC(=O)[C@@H]2C[C@@H](O)CN2C(=O)[C@@H](NC(=O)CCCCCCCNC(=O)CO[C@@H]2C[C@@H](C(=O)N(C)c3ccc(Br)cc3)N(C(=O)[C@@H](NC(=O)c3cc4cc(C(F)(F)P(=O)(O)O)ccc4s3)C(C)(C)C)C2)C(C)(C)C)cc1` [Compound 419, ((2-(((S)-1-((2S,4R)-2-((4-bromophenyl)(methyl)carbamoyl)-4-(2-((8-(((S)-1-((2S,4R)-4-hydroxy-2-((4-(4-methylthiazol-5-yl)benzyl)carbamoyl)pyrrolidin-1-yl)-3,3-dimethyl-1-oxobutan-2-yl)amino)-8-oxooctyl)amino)-2-oxoethoxy)pyrrolidin-1-yl)-3,3-dimethyl-1-oxobutan-2-yl)carbamoyl)benzo[b]thiophen-5-yl)difluoromethyl)phosphonic acid], the 50% degradation concentration (DC50) is, setting by setting: under setting [1], more than 10 µM; (MB231 cells, read-out: DC50 S6 MB231) more than 10 µM.
For `Cc1cc([C@H](C(=O)N2C[C@H](O)C[C@H]2C(=O)N[C@@H](CC(=O)NCCCCCCNC(=O)CO[C@@H]2C[C@@H](C(=O)N(C)c3ccc(Br)cc3)N(C(=O)[C@@H](NC(=O)c3cc4cc(C(F)(F)P(=O)(O)O)ccc4s3)C(C)(C)C)C2)c2ccc(-c3scnc3C)cc2)C(C)C)on1` [Compound 422, ((2-(((S)-1-((2S,4R)-2-((4-bromophenyl)(methyl)carbamoyl)-4-(2-((6-((S)-3-((2S,4R)-4-hydroxy-1-((R)-3-methyl-2-(3-methylisoxazol-5-yl)butanoyl)pyrrolidine-2-carboxamido)-3-(4-(4-methylthiazol-5-yl)phenyl)propanamido)hexyl)amino)-2-oxoethoxy)pyrrolidin-1-yl)-3,3-dimethyl-1-oxobutan-2-yl)carbamoyl)benzo[b]thiophen-5-yl)difluoromethyl)phosphonic acid], under setting [2], the DC50 was more than 10 µM.
As to `Cc1ncsc1-c1ccc([C@H](CC(=O)NCCCCCCCCC(=O)N[C@H]2C[C@@H](C(=O)N3CCO[C@H](c4ccccc4)C3)N(C(=O)[C@@H](NC(=O)c3cc4cc(C(F)(F)P(=O)(O)O)ccc4s3)C(C)(C)C)C2)NC(=O)[C@@H]2C[C@@H](O)CN2C(=O)[C@@H](NC(=O)C2(F)CC2)C(C)(C)C)cc1` [Compound 571, (difluoro(2-(((S)-1-((2S,4S)-4-(9-((S)-3-((2S,4R)-1-((S)-2-(1-fluorocyclopropane-1-carboxamido)-3,3-dimethylbutanoyl)-4-hydroxypyrrolidine-2-carboxamido)-3-(4-(4-methylthiazol-5-yl)phenyl)propanamido)nonanamido)-2-((R)-2-phenylmorpholine-4-carbonyl)pyrrolidin-1-yl)-3,3-dimethyl-1-oxobutan-2-yl)carbamoyl)benzo[b]thiophen-5-yl)methyl)phosphonic acid], the DC50 under setting [2] is more than 10 µM.
Turning to `Cc1ncsc1-c1ccc([C@H](C)NC(=O)[C@@H]2C[C@@H](O)CN2C(=O)[C@@H](NC(=O)CCCCCCCNC(=O)CC(=O)N2CCN(C(=O)[C@@H](NC(=O)c3cc4cc(C(F)(F)P(=O)(O)O)ccc4s3)C(C)(C)C)[C@H](C(=O)N3CCO[C@H](c4ccccc4)C3)C2)C(C)(C)C)cc1` [Compound 449, (difluoro(2-(((S)-1-((S)-4-(3-((8-(((S)-1-((2S,4R)-4-hydroxy-2-(((S)-1-(4-(4-methylthiazol-5-yl)phenyl)ethyl)carbamoyl)pyrrolidin-1-yl)-3,3-dimethyl-1-oxobutan-2-yl)amino)-8-oxooctyl)amino)-3-oxopropanoyl)-2-((R)-2-phenylmorpholine-4-carbonyl)piperazin-1-yl)-3,3-dimethyl-1-oxobutan-2-yl)carbamoyl)benzo[b]thiophen-5-yl)methyl)phosphonic acid], the 50% degradation concentration (DC50) is more than 10 µM under setting [1] and more than 10 µM under setting [2].
In the case of `Cc1ncsc1-c1ccc([C@H](C)NC(=O)[C@@H]2C[C@@H](O)CN2C(=O)[C@@H](NC(=O)CCCCCNC(=O)CC(=O)N2CCN(C(=O)[C@@H](NC(=O)c3cc4cc(C(F)(F)P(=O)(O)O)ccc4s3)C(C)(C)C)[C@H](C(=O)N3CCC[C@H](c4ccccc4)C3)C2)C(C)(C)C)cc1` [Compound 456, (difluoro(2-(((S)-1-((S)-4-(3-((6-(((S)-1-((2,4R)-4-hydroxy-2-(((S)-1-(4-(4-methylthiazol-5-yl)phenyl)ethyl)carbamoyl)pyrrolidin-1-yl)-3,3-dimethyl-1-oxobutan-2-yl)amino)-6-oxohexyl)amino)-3-oxopropanoyl)-2-((R)-3-phenylpiperidine-1-carbonyl)piperazin-1-yl)-3,3-dimethyl-1-oxobutan-2-yl)carbamoyl)benzo[b]thiophen-5-yl)methyl)phosphonic acid], the 50% degradation concentration (DC50) under setting [1] is more than 10 µM and the 50% degradation concentration (DC50) under setting [2] is more than 10 µM.
As for `Cc1ncsc1-c1ccc([C@H](C)NC(=O)[C@@H]2C[C@@H](O)CN2C(=O)[C@@H](NC(=O)CCCCCCCCNC(=O)CO[C@H]2C[C@@H](C(=O)N3CCC[C@H](c4ccccc4)C3)N(C(=O)[C@@H](NC(=O)c3cc4cc(C(F)(F)P(=O)(O)O)ccc4s3)C(C)(C)C)C2)C(C)(C)C)cc1` [Compound 441, (difluoro(2-(((S)-1-((2S,4S)-4-(2-((9-(((S)-1-((2S,4R)-4-hydroxy-2-(((S)-1-(4-(4-methylthiazol-5-yl)phenyl)ethyl)carbamoyl)pyrrolidin-1-yl)-3,3-dimethyl-1-oxobutan-2-yl)amino)-9-oxononyl)amino)-2-oxoethoxy)-2-((R)-3-phenylpiperidine-1-carbonyl)pyrrolidin-1-yl)-3,3-dimethyl-1-oxobutan-2-yl)carbamoyl)benzo[b]thiophen-5-yl)methyl)phosphonic acid], the half-maximal degradation concentration (DC50) by setting is: under setting [1], more than 10 µM; under setting [2], more than 10 µM.
With `Cc1ncsc1-c1ccc([C@H](C)NC(=O)[C@@H]2C[C@@H](O)CN2C(=O)[C@@H](NC(=O)CNC(=O)COc2ccc3c(c2)CN(C(=O)[C@@H](NC(=O)c2cc4cc(C(F)(F)P(=O)(O)O)ccc4s2)C(C)(C)C)[C@H](C(=O)N2CCC[C@H](c4ccccc4)C2)C3)C(C)(C)C)cc1` [Compound 470, (difluoro(2-(((S)-1-((S)-7-(2-((2-(((S)-1-((2S,4R)-4-hydroxy-2-(((S)-1-(4-(4-methylthiazol-5-yl)phenyl)ethyl)carbamoyl)pyrrolidin-1-yl)-3,3-dimethyl-1-oxobutan-2-yl)amino)-2-oxoethyl)amino)-2-oxoethoxy)-3-((R)-3-phenylpiperidine-1-carbonyl)-3,4-dihydroisoquinolin-2(1H)-yl)-3,3-dimethyl-1-oxobutan-2-yl)carbamoyl)benzo[b]thiophen-5-yl)methyl)phosphonic acid], the DC50 under setting [2] is more than 10 µM.
For `Cc1ncsc1-c1ccc([C@H](C)NC(=O)[C@@H]2C[C@@H](O)CN2C(=O)[C@@H](NC(=O)CCCNC(=O)CO[C@H]2C[C@@H](C(=O)N3CCC[C@H](c4ccccc4)C3)N(C(=O)[C@@H](NC(=O)c3cc4cc(C(F)(F)P(=O)(O)O)ccc4s3)C(C)(C)C)C2)C(C)(C)C)cc1` [Compound 436, (difluoro(2-(((S)-1-((2S,4S)-4-(2-((4-(((S)-1-((2S,4R)-4-hydroxy-2-(((S)-1-(4-(4-methylthiazol-5-yl)phenyl)ethyl)carbamoyl)pyrrolidin-1-yl)-3,3-dimethyl-1-oxobutan-2-yl)amino)-4-oxobutyl)amino)-2-oxoethoxy)-2-((R)-3-phenylpiperidine-1-carbonyl)pyrrolidin-1-yl)-3,3-dimethyl-1-oxobutan-2-yl)carbamoyl)benzo[b]thiophen-5-yl)methyl)phosphonic acid], the 50% degradation concentration (DC50) by setting is: under setting [1], more than 10 µM; under setting [2], more than 10 µM.
On to `Cc1ncsc1-c1ccc([C@H](C)NC(=O)[C@@H]2C[C@@H](O)CN2C(=O)[C@@H](NC(=O)CCCCCCNC(=O)CC(=O)N2CCN(C(=O)[C@@H](NC(=O)c3cc4cc(C(F)(F)P(=O)(O)O)ccc4s3)C(C)(C)C)[C@H](C(=O)N3CCO[C@H](c4ccccc4)C3)C2)C(C)(C)C)cc1` [Compound 448, (difluoro(2-(((S)-1-((S)-4-(3-((7-(((S)-1-((2S,4R)-4-hydroxy-2-(((S)-1-(4-(4-methylthiazol-5-yl)phenyl)ethyl)carbamoyl)pyrrolidin-1-yl)-3,3-dimethyl-1-oxobutan-2-yl)amino)-7-oxoheptyl)amino)-3-oxopropanoyl)-2-((R)-2-phenylmorpholine-4-carbonyl)piperazin-1-yl)-3,3-dimethyl-1-oxobutan-2-yl)carbamoyl)benzo[b]thiophen-5-yl)methyl)phosphonic acid], for which the DC50 reads like this: under setting [1], more than 10 µM; under setting [2], more than 10 µM.

For the origin of these results see patent US20230295197A1, “STAT5 and STAT6 Degraders and Uses Thereof” (REGENTS OF THE UNIVERSITY OF MICHICAN, priority 2022, published 2023).
